Laboratory results published in patent US4839385A, “Use of manoalide and its derivatives for modifying calcium homeostasis” (The Regents of the University of California, priority 1987, dated 1989).

What was measured:
Format in all cases: cell-based
[1] = test system: plasma membrane calcium channels; test: Calcium entry through plasma membrane calcium channels, gastric glands; settings: 1 μM and less
From the text: (§1) The effect of manoalide on intracellular calcium levels was investigated through experiments using gastric glands. These glands contain two types of cells that use either plasma membrane channels or release from intracellular stores to increase cytosolic calcium.

[2] = test system: Mouse spleen cells; test: Effect of manoalide on Con A-induced rise in intracellular calcium in mouse spleen cells (FURA-2)
Experimental: When 40 μg/ml Con A was added to single cell suspensions of mouse spleen cells were prepared by the standard methods, a rapid rise in intracellular calcium was observed. This calcium signal is characteristic of calcium moving from outside the cell to inside through a plasma membrane channel. If calcium is removed from the external medium, the rise in intracellular calcium is completely absent.
(§2) The concentration of free intracellular calcium was determined by loading the cells with a calcium sensitive florescent dye, FURA-2® (Grynkiewicz, G., Poenig, M. and Tsien, R. J., Biol. Chem 260: 3440-3450, 1985). Fluorescence measurements and calibration curves were done the same as for Quin-2, Pandol, S., Schoeffield, M., Sachs, G. and Muallem, S. (J. Biol. Chem 10081-10086, 1985).
(§3) Once the cells were loaded, aliquots (10^6 cells/ml) were placed in cuvettes and the baseline intracellular calcium concentration determined.
(§4) Manoalide was dissolved in polyethylene glycol 400 or dimethylsulfoxide and added as indicated before the Con A was added to the cuvette.
(§5) *All cells were preincubated at 37° C. for 5 minutes before
(§6) addition of Con A (40 μg/ml).

[3] = test system: Parietal cells; test: Acid secretion in parietal cells after carbachol or forskolin stimulation
[4] = test system: EL-4; test: Inhibition of growth of tumor cell line EL-4
[5] = test system: A431 cells; test: EGF-induced calcium signal in A431 human epidermoid carcinoma cells; settings: 1.5 μM; 5 minutes; EGF 5 μg/ml
Experimental: The A431 cell line, human epidermoid carcinoma cell, can be activated with 5 μg/ml epidermal growth factor (EGF). Sawyer, S. T. and Cohen, S (Biochemistry 20, 6280-6286, 1981) have shown that EGF enhances calcium uptake in these cells.
A431 Cells were grown in 150 ml Falcon flasks containing Dulbecco's modified Eagle's medium (Gibco) supplemented with 10% fetal calf serum (Irvine Scientific) and gentamycin.

[6] = test system: Peptic cells; test: Pepsin secretion in peptic cells after CCK, carbachol or forskolin stimulation
Experimental: (§7) Gastric glands contain both peptic cells (release of calcium from intracellular stores) and parietal cells (plasma membrane calcium channel). Gastric cells were isolated as described by Muallem, et. al. (Amer. J. Physiol. 248-G216-G228, 1985). Addition of CCK or carbachol to a final concentration of […] and 0.1 mM respectively were used to activate these cells. Muallem et al. (J. Biol. Chem.: In Press, 1986) have shown that these hormones stimulate these cells and result in an increase in free intracellular cytosolic calcium.
(§8) With peptic cells, the hormones CCK or carbachol cause release of calcium from intracellular stores. […] The calcium signal in these cells is different from that observed in the conconavalin stimulated release of calcium from spleen cells.
To examine the correlation between secretion and the calcium signal, the effects of manoalide on pepsin secretion were quantitated (Table 3).

[7] = test system: Peptic cells; test: CCK or carbachol stimulated increase in calcium (release from intracellular stores) in peptic cells
Experimental: as §7, §8
The calcium transient observed is characteristic of the release of calcium from intracellular stores. If calcium is removed from the extracellular medium it has no effect on the calcium signal.

[8] = test system: Human lymphocytes; test: Effect of manoalide on Con A-induced calcium rise in human lymphocytes (FURA-2); settings: Lymphocyte, 5 min preincubation 37° C., Con A 40 μg/ml
Experimental: as §2, §3, §4
Similar results were obtained with human lymphocytes isolated and prepared according to the method of Muallem, et al.
as §5, §6

[9] = test system: intracellular stores; test: Calcium release from intracellular stores, gastric glands; settings: 30-50 μM
From the text: as §1

CC1=C(CC/C(C)=C/CCC2=CCC(C3=CC(=O)OC3O)OC2O)C(C)(C)CCC1 (centres unmarked) [manoalide]
calcium entering through the plasma membrane calcium channels [1]: inhibits calcium from entering
inhibition of the rise in intracellular calcium ([2]; 0.5 μM, 5 min preincubation 37° C., 40 μg/ml Con A): complete inhibition
nature of the inhibition of the calcium signal ([2]; Con A 40 μg/ml): time dependent and irreversible
inhibition at 0.01 µM ([2]; Mus musculus, 0.01 μM, 5 min preincubation 37° C., Con A 40 μg/ml): 0%
inhibition at 0.1 µM ([2]; Mus musculus, 0.1 μM, 5 min preincubation 37° C., Con A 40 μg/ml): 30%
inhibition at 0.3 µM ([2]; Mus musculus, 0.3 μM, 5 min preincubation 37° C., Con A 40 μg/ml): 70%
inhibition at 1 µM ([2]; Mus musculus, 1.0 μM, 5 min preincubation 37° C., Con A 40 μg/ml): 100%
activity at 0.1 µM ([3]; Carbachol Stimulation): 50%
activity at 0.1 µM ([3]; Forskolin): 100%
activity at 0.5 µM ([3]; Carbachol Stimulation): 10%
activity at 0.5 µM ([3]; Forskolin): 100%
activity at 5 µM ([3]; Carbachol Stimulation): 0%
activity at 5 µM ([3]; Forskolin): 100%
activity at 50 µM ([3]; Carbachol Stimulation): 0%
activity at 50 µM ([3]; Forskolin): 100%
acid secretion in parietal cells ([3]; preincubation with 0.1-5.0 μM): blocked acid secretion
tumor cell growth inhibition [4]: inhibited from growing
effect on the Ca signal [5]: complete abolition
activity at 0.1 µM ([6]; CCK Stimulation (N = 5)): 100%
activity at 0.1 µM ([6]; Carbachol (2)): 100%
activity at 0.1 µM ([6]; Forskolin (2)): 100%
activity at 0.5 µM ([6]; CCK Stimulation (N = 5)): 105%
activity at 0.5 µM ([6]; Carbachol (2)): 110%
activity at 0.5 µM ([6]; Forskolin (2)): 100%
activity at 5 µM ([6]; CCK Stimulation (N = 5)): 115%
activity at 5 µM ([6]; Carbachol (2)): 110%
activity at 5 µM ([6]; Forskolin (2)): 100%
activity at 50 µM ([6]; CCK Stimulation (N = 5)): 60%
activity at 50 µM ([6]; Carbachol (2)): 40%
activity at 50 µM ([6]; Forskolin (2)): 100%
minimal effective concentration ([6]; peptic cells, read-out: concentration below which no inhibition of the biological effect was observed): > 50 µM
inhibition of CCK or carbachol stimulated increase in calcium ([7]; 5 μM): no inhibition
inhibition of the calcium signal ([7]; 50 μM or higher): showed inhibition of the calcium signal
nature of the inhibition of the calcium signal ([7]; 50 μM or higher): irreversible and time dependent
inhibition of the calcium signal ([7]; 60 μM): significant inhibition of the calcium signal
inhibition at 0.05 µM ([8]; 0.05 μM): 0%
inhibition at 0.1 µM ([8]; 0.1 μM): 15%
inhibition at 0.25 µM ([8]; 0.25 μM): 30%
inhibition at 0.5 µM ([8]; 0.5 μM): 65%
inhibition at 1 µM ([8]; 1.0 μM): 100%
calcium release from intracellular stores [9]: blocks calcium release
